Assay results published in patent US11766411B2, “Use of cannabinoids in the treatment of epilepsy” (GW Research Limited, priority 2014, dated 2023).

Columns and labels:
[1] = system: institutionalized adult patients; settings: 200 mg/day of pure CBD, twelve institutionalized adult patients, open label; cited from earlier work
[2] = system: adult patients with generalized epilepsy; settings: eight adult patients with generalized epilepsy; cited from earlier work
mice = settings: after administration of pro-convulsant drugs or an electric current; cited from earlier work
[3] = system: children and young adults with severe, childhood onset treatment-resistant epilepsy (TRE); experiment: Expanded access compassionate use program of highly purified CBD extract added to baseline AED regimen; seizure diaries; format: in vivo, human
Experimental: Twenty-seven children and young adults with severe, childhood onset treatment-resistant epilepsy (TRE) were tested with a highly purified extract of cannabidiol (CBD) obtained from a cannabis plant. The participants in the study were part of an expanded access compassionate use program for CBD.
All patients entered a baseline period of 4 weeks when parents/caregivers kept prospective seizure diaries, noting all countable motor seizure types.
The patients then received a highly purified CBD extract (greater than 98% CBD w/w) in sesame oil, of known and constant composition, at a dose of 5 mg/kg/day in addition to their baseline anti-epileptic drug (AED) regimen.
Laboratory testing for hematologic, liver, kidney function, and concomitant AED levels was performed at baseline, and after 4, 8 and 12 weeks of CBD therapy.

[4] = 27 subjects, 3-month treatment period
[5] = All patients (excluding Dravet, MAS and FIRES) (n = 13), after 12 weeks of treatment
[6] = All patients excluding Dravet patients (n = 18), after 3 months
[7] = All patients excluding MAS patients (n = 23), after 3 months
[8] = co-treatment of CBD with clobazam

Structure (SMILES): C=C(C)[C@@H]1CCC(C)=C[C@H]1c1c(O)cc(CCCCC)cc1O [CBD, Cannabidiol]
- controlling seizures [1]: ineffective
- patients with a marked reduction of seizures [2]: 4
- prevention of seizures (mice): able to prevent seizures
- Common adverse events [3, 4]: somnolence, fatigue, decreased appetite, increased appetite and diarrhoea
- adverse events [3, 4]: mild and well tolerated
- subjects who withdrew during the treatment period [3, 4]: None
- Responder rate (>50% reduction) [%] [3, 5]: 38%
- Responder rate (>50% reduction), number of patients [3, 5]: 5
- Responder rate (>70% reduction) [%] [3, 5]: 31%
- Responder rate (>70% reduction), number of patients [3, 5]: 4
- Responder rate (>90% reduction) [%] [3, 5]: 8%
- Responder rate (>90% reduction), number of patients [3, 5]: 1
- Seizure free, number of patients [3, 5]: 0
- Responder rate (>50% reduction) [%] ([3]; All patients (n = 27), Month 3): 48%
- Responder rate (>50% reduction), number of patients ([3]; All patients (n = 27), Month 3): 13
- Responder rate (>70% reduction) [%] ([3]; All patients (n = 27), Month 3): 41%
- Responder rate (>70% reduction), number of patients ([3]; All patients (n = 27), Month 3): 11
- Responder rate (>90% reduction) [%] ([3]; All patients (n = 27), Month 3): 22%
- Responder rate (>90% reduction), number of patients ([3]; All patients (n = 27), Month 3): 6
- Seizure free [%] ([3]; All patients (n = 27), Month 3): 7%
- Responder rate (>50% reduction) [%] [3, 6]: 44%
- Responder rate (>50% reduction), number of patients [3, 6]: 8
- Responder rate (>70% reduction) [%] [3, 6]: 39%
- Responder rate (>70% reduction), number of patients [3, 6]: 7
- Responder rate (>90% reduction) [%] [3, 6]: 17%
- Responder rate (>90% reduction), number of patients [3, 6]: 3
- Seizure free, number of patients [3, 6]: 0
- Responder rate (>50% reduction) [%] [3, 7]: 48%
- Responder rate (>50% reduction), number of patients [3, 7]: 11
- Responder rate (>70% reduction) [%] [3, 7]: 39%
- Responder rate (>70% reduction), number of patients [3, 7]: 9
- Responder rate (>90% reduction) [%] [3, 7]: 22%
- Responder rate (>90% reduction), number of patients [3, 7]: 5
- Seizure free [%] [3, 7]: 9%
- Seizure free, number of patients [3, 7]: 2
- odds ratio (OR) for positive treatment response (greater than 50% responder rate), convulsive seizures [3, 8]: 1.9
- odds ratio (OR) for positive treatment response (greater than 50% responder rate), total seizure reduction [3, 8]: 3.3
- tolerability ([3]; doses up to 25 mg/kg/day): generally well-tolerated
